Experimental data as given in publication PMC6572176, “Functional Glyco-Nanogels for Multivalent Interaction with Lectins” (Molecules, 2019).

Columns and labels:
[1] = target: T1, Ulex europaeus agglutinin I (UEA I) (Ulex europaeus, UniProt P22972); experiment: ELISA-type competitive inhibition, fluorescein-labeled lectin on immobilized porcine stomach mucin; format: binding; settings: 10 mM HEPES, 150 mM NaCl, 0.1 mM CaCl2, pH 7.5, 1 h
T1 construct: native plant lectin, fluorescein-labeled (Vector Laboratories)
T1 sequence (P22972 1-243): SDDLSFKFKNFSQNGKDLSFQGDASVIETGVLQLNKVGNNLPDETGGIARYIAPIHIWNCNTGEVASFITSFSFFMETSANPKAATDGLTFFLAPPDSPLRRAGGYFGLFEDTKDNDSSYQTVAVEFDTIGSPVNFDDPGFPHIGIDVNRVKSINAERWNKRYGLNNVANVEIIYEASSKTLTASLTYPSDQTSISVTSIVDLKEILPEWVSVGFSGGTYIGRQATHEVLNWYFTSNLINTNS

[2] = target: T2, Erythrina cristagalli lectin (ECL) (Erythrina crista-galli, UniProt P83410); experiment: ELISA-type competitive inhibition, fluorescein-labeled lectin on immobilized asialofetuin; format: binding; settings: 10 mM HEPES, 150 mM NaCl, 0.1 mM CaCl2, pH 7.5, 1 h
T2 construct: native plant lectin, fluorescein-labeled (Vector Laboratories); dimeric
T2 sequence (P83410 1-239): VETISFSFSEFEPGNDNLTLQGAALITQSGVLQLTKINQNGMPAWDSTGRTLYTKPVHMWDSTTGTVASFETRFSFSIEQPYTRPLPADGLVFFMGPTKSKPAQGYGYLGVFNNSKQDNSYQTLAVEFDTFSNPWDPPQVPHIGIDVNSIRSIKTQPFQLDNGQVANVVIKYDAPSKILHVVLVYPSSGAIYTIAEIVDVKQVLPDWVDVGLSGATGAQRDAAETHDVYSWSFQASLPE

SMILES: C[C@@H]1OC(O)[C@@H](O)[C@H](O)[C@@H]1O (some centres unmarked) [fucose]
- IC50 [1]: The IC50 value of fucose for UEA I binding is three-times

SMILES: OC[C@H]1O[C@@H](O[C@H]2[C@H](O)[C@@H](O)C(O)O[C@@H]2CO)[C@H](O)[C@@H](O)[C@H]1O (some centres unmarked) [lactose]
- IC50 [2]: free lactose is a potent inhibitor for ECL with IC50 in the same range
